± gives the standard deviation of the averaged measurements.
Legend:
Test in all cases: level (log10 ratio to DMSO vehicle control); higher = higher biomarker level / cell amount than vehicle control
[1] = compound: NS(=O)(=O)C(F)(F)C(F)(F)C(F)(F)C(F)(F)C(F)(F)C(F)(F)C(F)(F)C(F)(F)F [Perfluorooctanesulfonamide] (in DMSO)
Procedure: (§1)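 BioMAP Diversity Plus panel of 12 human primary cell co-culture systems (3C, 4H, LPS, SAg, BT, BF4T, BE3C, CASM3C, HDF3CGF, KF3CT, MyoF, Mphg). Compounds were added 1 h before stimulation and left for 24 h (MyoF 48 h; BT 72 h for soluble read-outs or 6 d for IgG). Biomarkers were read by ELISA, cytotoxicity by SRB, PBMC viability and proliferation by Alamar Blue. Each well value was divided by the mean of 8 DMSO control wells on the same plate and log10 transformed; duplicate blinded samples were tested at 4 concentrations.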

[2] = compound: O=C(O)CCC(F)(C(F)(F)F)C(F)(F)F [4,4-bis(Trifluoromethyl)-4-fluoropropanoic acid] (in DMSO)
Procedure: as §1

[3] = compound: OCC(F)(F)C(F)(F)C(F)(F)C(F)F [1H,1H,5H-Perfluoropentanol] (in DMSO)
Procedure: as §1

Perfluorononanoic acid = compound: O=C(O)C(F)(F)C(F)(F)C(F)(F)C(F)(F)C(F)(F)C(F)(F)C(F)(F)C(F)(F)F [Perfluorononanoic acid] (in DMSO)
Procedure: as §1

[4] = compound: CN(C(=O)C(F)(F)C(F)(F)C(F)(F)F)[Si](C)(C)C [N-Methyl-N-trimethylsilylheptafluorobutyramide] (in DMSO)
Procedure: as §1

Octafluoroadipic acid = compound: O=C(O)C(F)(F)C(F)(F)C(F)(F)C(F)(F)C(=O)O [Octafluoroadipic acid] (in DMSO)
Procedure: as §1

[5] = compound: C=C(C)C(=O)OCCC(F)(F)C(F)(F)C(F)(F)C(F)(F)C(F)(F)C(F)(F)C(F)(F)C(F)(F)F [8:2 Fluorotelomer methacrylate] (in DMSO)
Procedure: as §1

[6] = compound: O=C(O)C(F)(F)OC(F)(F)C(F)(F)OC(F)(F)C(F)(F)OC(F)(F)C(F)(F)C(F)(F)C(F)(F)F [Perfluoro-3,6,9-trioxatridecanoic acid] (in DMSO); details: 6700 nM
Procedure: as §1

| Test System | level (log10) ([1]; 6700 nM) | level (log10) ([1]; 20000 nM) | level (log10) ([2]; 6700 nM) | level (log10) ([2]; 20000 nM) | level (log10) ([2]; 60000 nM) | level (log10) ([3]; 6700 nM) | level (log10) ([3]; 20000 nM) | level (log10) ([3]; 60000 nM) | level (log10) (Perfluorononanoic acid; 6700 nM) | level (log10) (Perfluorononanoic acid; 20000 nM) | level (log10) ([4]; 6700 nM) | level (log10) ([4]; 20000 nM) | level (log10) ([4]; 60000 nM) | level (log10) (Octafluoroadipic acid; 6700 nM) | level (log10) (Octafluoroadipic acid; 20000 nM) | level (log10) (Octafluoroadipic acid; 60000 nM) | level (log10) ([5]; 6700 nM) | level (log10) ([5]; 20000 nM) | level (log10) [6] |
| --- | --- | --- | --- | --- | --- | --- | --- | --- | --- | --- | --- | --- | --- | --- | --- | --- | --- | --- | --- |
| SAg:CCL2/MCP-1 | -0.0125 ± 0.021 | 0.0075 ± 0.015 | 0 ± 0.033 | -0.0125 ± 0.00071 | -0.0125 ± 0.025 | 0.016 ± 0.0085 | 0.0115 ± 0.035 | -0.014 ± 0.035 | -0.0015 ± 0.0035 | 0.0555 ± 0.013 | -0.0135 ± 0.0078 | -0.012 ± 0.018 | -0.0005 ± 0.026 | -0.014 ± 0.02 | -0.0135 ± 0.0035 | 0.0015 ± 0.018 | 0.0005 ± 0.025 | 0.003 ± 0.011 | -0.0125 ± 0.018 |
| SAg:CD38 | -0.006 ± 0.0071 | -0.089 ± 0.016 | -0.02 ± 0.047 | -0.008 ± 0.013 | -0.0025 ± 0.019 | 0.0465 ± 0.018 | 0.0415 ± 0.022 | 0.0305 ± 0.049 | 0.0155 ± 0.069 | 0.0205 ± 0.056 | -0.0015 ± 0.019 | -0.009 ± 0.0014 | 0.0115 ± 0.023 | -0.0415 ± 0.023 | -0.026 ± 0.017 | -0.0265 ± 0.0021 | -0.0195 ± 0.00071 | -0.011 ± 0.013 | 0.0175 ± 0.026 |
| SAg:CD40 | -0.028 ± 0.0042 | -0.1085 ± 0.00071 | -0.0495 ± 0.073 | -0.0245 ± 0.077 | -0.055 ± 0.089 | -0.055 ± 0.033 | -0.018 ± 0.031 | -0.0165 ± 0.073 | -0.0285 ± 0.044 | -0.057 ± 0.02 | -0.0185 ± 0.059 | -0.009 ± 0.0042 | -0.0075 ± 0.00071 | -0.0135 ± 0.015 | -0.013 ± 0.023 | -0.025 ± 0.016 | -0.0265 ± 0.035 | -0.0335 ± 0.0078 | -0.0155 ± 0.043 |
| SAg:CD62E/E-Selectin | -0.0165 ± 0.00071 | -0.0845 ± 0.015 | -0.011 ± 0.011 | -0.0025 ± 0.021 | -0.013 ± 0.0028 | -0.011 ± 0.018 | 0.008 ± 0.0071 | 0.0325 ± 0.035 | -0.01 ± 0.03 | 0.0315 ± 0.039 | -0.017 ± 0.0085 | -0.017 ± 0.017 | -0.0225 ± 0.021 | -0.0095 ± 0.077 | 0.0125 ± 0.053 | 0.0285 ± 0.029 | -0.005 ± 0.013 | 0.0205 ± 0.023 | -0.019 ± 0.057 |
| SAg:CD69 | -0.0205 ± 0.06 | -0.119 ± 0.064 | -0.0395 ± 0.0021 | -0.0205 ± 0.00071 | -0.0515 ± 0.046 | -0.015 ± 0.018 | 0.0185 ± 0.0092 | 0.0045 ± 0.023 | -0.035 | -0.0335 ± 0.015 | -0.024 ± 0.0014 | 0.0015 ± 0.0078 | -0.0025 ± 0.015 | 0.0345 ± 0.073 | 0.0345 ± 0.056 | 0.0315 ± 0.054 | -0.013 ± 0.016 | -0.022 ± 0.013 | -0.0065 ± 0.0021 |
| SAg:CXCL8/IL-8 | -0.0015 ± 0.005 | -0.0505 ± 0.03 | 0.027 ± 0.035 | 0.0095 ± 0.064 | 0.019 ± 0.079 | 0.006 ± 0.033 | -0.0065 ± 0.00071 | 0.0275 ± 0.052 | -0.0165 ± 0.029 | 0.0095 ± 0.036 | -0.0015 ± 0.018 | -0.0385 ± 0.019 | -0.007 ± 0.035 | 0.014 ± 0.018 | 0.01 ± 0.013 | 0.018 ± 0.031 | -0.0215 ± 0.047 | 0.007 ± 0.021 | -0.023 ± 0.011 |
| SAg:CXCL9/MIG | -0.002 ± 0.0042 | -0.0055 ± 0.011 | 0.0015 ± 0.0064 | 0.008 ± 0.0042 | 0.0035 ± 0.00071 | -0.0105 ± 0.00071 | 0.0005 ± 0.013 | 0.008 ± 0.023 | 0.005 ± 0.017 | -0.004 ± 0.013 | 0.007 ± 0.0057 | -0.009 ± 0.0014 | -0.0135 ± 0.0078 | -0.0075 ± 0.016 | 0.005 ± 0.0028 | 0.011 ± 0.0057 | 0.001 ± 0.0099 | 0.002 ± 0.0014 | -0.001 ± 0.0014 |
| SAg:PBMC Cytotoxicity | 0.009 ± 0.034 | 0.0315 ± 0.0064 | 0.004 ± 0.0042 | -0.0015 ± 0.0092 | 0.008 ± 0.027 | -0.005 ± 0.0042 | 0.0025 ± 0.013 | 0.035 ± 0.058 | 0.006 ± 0.018 | 0.015 ± 0.013 | -0.0155 ± 0.00071 | 0.011 ± 0.014 | 0.011 ± 0.025 | 0.0085 ± 0.0064 | -0.0165 ± 0.042 | 0.0155 ± 0.00071 | -0.0215 ± 0.012 | 0.018 ± 0.011 | -0.003 ± 0.037 |
| SAg:Proliferation | -0.031 ± 0.042 | -0.0445 ± 0.036 | 0.007 ± 0.051 | -0.03 ± 0.044 | 0.0375 ± 0.053 | -0.0155 ± 0.011 | -0.0635 ± 0.016 | 0.025 ± 0.055 | 0.0075 ± 0.056 | 0.0035 ± 0.0092 | 0.0395 ± 0.015 | 0.0565 ± 0.028 | 0.0635 ± 0.088 | -0.021 ± 0.016 | -0.0095 ± 0.0092 | -0.0065 ± 0.059 | -0.0045 ± 0.053 | 0.052 ± 0.0028 | -0.0295 ± 0.042 |
| SAg:SRB | 0.0065 ± 0.005 | -0.0515 ± 0.0064 | -0.0035 ± 0.0078 | 0.006 ± 0.0042 | 0.003 ± 0.016 | -0.0075 ± 0.0021 | -0.009 ± 0.0014 | 0.001 ± 0.0085 | -0.01 ± 0.0085 | -0.002 ± 0.0099 | 0.0055 ± 0.013 | 0.013 ± 0.0042 | 0.008 ± 0.0099 | -0.01 ± 0.016 | -0.008 ± 0.014 | -0.012 ± 0.0014 | -0.009 ± 0.0014 | -0.011 ± 0.018 | 0.0015 ± 0.013 |

— the supplement of paper PMC10331698
